# Results: PMC12233266, “Loss of serine/threonine protein phosphatase 6 severely impairs sexual stage development in malaria parasite Plasmodium berghei” (PLOS Pathogens, 2025)
# Molecular target: T1, Ser/Thr protein phosphatase 6 (PbPP6) (Plasmodium berghei, UniProt A0A509AFY8)
# T1 construct: gene PBANKA_0412100; full-length PbPP6 (308 aa), C-terminal His tag, expressed in Pichia GS115 (rPbPP6)
# T1 sequence (A0A509AFY8 1-308): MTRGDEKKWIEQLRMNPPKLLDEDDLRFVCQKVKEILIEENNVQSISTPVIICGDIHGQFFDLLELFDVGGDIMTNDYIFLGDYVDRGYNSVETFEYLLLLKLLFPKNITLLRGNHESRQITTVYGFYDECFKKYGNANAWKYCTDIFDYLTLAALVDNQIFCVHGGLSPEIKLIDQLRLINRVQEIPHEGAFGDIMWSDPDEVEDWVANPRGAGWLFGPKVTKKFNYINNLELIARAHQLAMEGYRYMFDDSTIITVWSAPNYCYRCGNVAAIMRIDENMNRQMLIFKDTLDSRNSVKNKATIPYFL
# Experiment: ProFluor Ser/Thr PPase fluorescence assay (R110 substrate) with purified recombinant enzyme, dose-response
# Format: biochemical
smiles,measurement,value
"C=C1[C@@H](O)[C@@H]2O[C@]3(CC[C@H](/C=C/[C@@H](C)[C@@H]4CC(C)=C[C@@]5(O[C@H](C[C@@](C)(O)C(=O)O)CC[C@H]5O)O4)O3)CC[C@H]2O[C@@H]1[C@@H](O)C[C@H](C)[C@H]1O[C@@]2(CCCCO2)CC[C@H]1C [OKA, okadaic acid]",IC50,0.86 nM
